# Laboratory results reported in patent publication US10513694B2, “Thienopyrrole compounds and uses thereof” (PROMEGA CORPORATION, priority 2015, dated 2019).
# “Also recorded” adds a separate entry of the source.
# Key:
# [1] = biological target: NANOLUC® enzyme (Oplophorus gracilirostris, UniProt Q9GV45, A31E/A60N/A81I/F95D/I117V/K70R/L54V/L99Q/M102K/N193R/P142E/Q151K/Q38R/Q45L/V71I/Y165I); assay: Inhibitor IC50 determination (NANOLUC enzyme, furimazine); format: biochemical; conditions: IC50 (uM), 0.4 ng/ml NANOLUC enzyme, final furimazine 10 uM (at Km)
# NANOLUC® enzyme, sequence (Q9GV45 28-196 with tags or gaps with the stated changes limits assumed): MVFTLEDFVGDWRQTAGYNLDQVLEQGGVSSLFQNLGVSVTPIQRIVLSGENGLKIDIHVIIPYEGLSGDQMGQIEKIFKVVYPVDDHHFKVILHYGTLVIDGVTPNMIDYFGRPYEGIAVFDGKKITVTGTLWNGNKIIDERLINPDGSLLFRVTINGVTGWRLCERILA
# [2] = biological target: T1, Nluc enzyme in REALTIME-GLO™ MT Cell Viability reagent (Oplophorus gracilirostris, UniProt Q9GV45, A31E/A60N/A81I/F95D/I117V/K70R/L54V/L99Q/M102K/N193R/P142E/Q151K/Q38R/Q45L/V71I/Y165I); assay: RealTime-Glo / Caspase-Glo multiplex in K562 cells; format: cell-based; conditions: Trail titration, 200 μM in CASPASE-GLO 3/7 reagent, 2 hrs RT
# T1 construct: purchased Promega Corporation
# T1 sequence (Q9GV45 28-196 with tags or gaps with the stated changes limits assumed): as above
# Experimental: K562 were plated into wells of a Corning 3707 assay plate in 20 μL RPMI media at 2000 cells/well and incubated overnight. A Trail titration was prepared in 10 μL RPMI media and added to cells. Then either 10 μL 4× REALTIME-GLO™ MT Cell Viability reagent (RTCV; Promega Corporation) or media (control) was added to each well. The reactions were incubated at 37° C./5% CO2 at various time points, and luminescence was measured on a Tecan M1000 Pro plate reader. At 5 hrs, 40 μL CASPASE-GLO® 3/7 detection reagent (Promega Corporation) was added with or without 200 μM JRW-0004. The reaction was incubated for 2 hrs at room temperature (RT), and luminescence was measured on the Tecan M1000 Pro plate reader.
# [3] = biological target: T2, purified Nluc enzyme (Oplophorus gracilirostris, UniProt Q9GV45, A31E/A60N/A81I/F95D/I117V/K70R/L54V/L99Q/M102K/N193R/P142E/Q151K/Q38R/Q45L/V71I/Y165I); format: biochemical; conditions: titration up to 100 μM final; RT 2 hrs; pro-substrate PBI-4442 + DTT
# T2 construct: purchased Promega Corporation
# T2 sequence (Q9GV45 28-196 with tags or gaps with the stated changes limits assumed): as above
# Experimental: In a Corning 3570 assay plate, purified Nluc enzyme (Promega Corporation), 20 mM DTT, and an Nluc pro-substrate (PBI-4442, which is described in US Patent Publication No. 2013/0130289), which is converted to an Nluc substrate upon reduction with DTT, was added. Compound titrations of JRW-0004, JRW-0013, JRW-0006, JRW-0042, JRW-0138, and JRW-0147 were then made (1:2 serial dilution in PBS, 11 points plus no inhibitor control, starting at 200 μM; 100 μM final concentration in reaction). Compound titrations were added in equal volume to the wells of the assay plate. The reactions were incubated at RT for 2 hrs, and luminescence was measured on Tecan M1000 Pro plate reader. Half-maximal inhibitor (thienopyrrole compound) concentrations (IC50s) were determined using GraphPad Prism 6.03.
# [4] = test system: firefly luciferase, e.g., ULTRAGLO® luciferase; assay: Specificity of inhibition: firefly luciferase activity; format: biochemical; conditions: 1 μM luciferin in Luciferase Detection Reagent; RT 2 hrs
# Experimental: The following example describes the specificity of disclosed thienopyrrole compounds, JRW-0004, JRW-0013, JRW-0006, JRW-0042, JRW-0138, and JRW-0147, to inhibit Nluc luciferase activity versus firefly luciferase activity, e.g., ULTRAGLO® luciferase. In a Corning 3570 assay plate, a solution containing 1 μM luciferin in Luciferase Detection Reagent (Promega Corporation V865/859) was added to the assay wells. An equal volume of titrations the thienopyrrole compounds, JRW-0004, JRW-0013, JRW-0006, JRW-0042, JRW-0138, and JRW-0147 were then added to the wells. The reactions were incubated at RT for 2 hrs, and luminescence was measured on Tecan M1000 Pro plate reader.
# [5] = test system: Nluc enzyme; assay: Multiplex RealTime-Glo / Caspase-Glo 3/7 in MCF7 cells; format: cell-based
# Experimental: (§1) A) In a Corning 3570 assay plate, MCF7 cells were plated at 1,000 cells/well in 20 μL of cell culture media (EMEM supplemented with 0.01 mg/mL human recombinant insulin and 10% fetal bovine serum) and incubated in overnight. 10 μL of 4× REALTIME-GLO™ MT Cell Viability reagents (Promega Corporation) in media or 10 μL media only was added to the cells. 10 μL of 40 μM staurosporine in media or 10 μL media only (control) was added to the cells. The cells were incubated, and caspase activation monitored at 5.5 hrs post-reagent addition. To monitor caspase activation, 40 μL CASPASE-GLO® 3/7 Assay Reagent (Promega Corporation), either on its own (Caspase) or with 200 μM of JRW-0004, JRW-0013, or JRW-0042, was added. Reactions were incubated at RT, and luminescence was measured at 1 hr 10 min post-reagent addition on Tecan M1000 Pro plate reader.
# (§2) When comparing the signal generated from the CASPASE-GLO® reagent in media only versus the signal generated in media containing REALTIME-GLO™ reagent, the signal is higher in the multiplex reaction.
# [6] = biological target: Nluc luciferase (Oplophorus gracilirostris, UniProt Q9GV45, A31E/A60N/A81I/F95D/I117V/K70R/L54V/L99Q/M102K/N193R/P142E/Q151K/Q38R/Q45L/V71I/Y165I); assay: Inhibition of purified Nluc, dose and time dependence; format: biochemical; conditions: pro-substrate PBI-4442, DTT, TERGITOL, RT, various time points
# Nluc luciferase, sequence (Q9GV45 28-196 with tags or gaps with the stated changes limits assumed): as above
# Experimental: A solution of purified Nluc and an Nluc pro-substrate (PBI-4442, which is described in US 2013/0130289), which is converted to an Nluc substrate upon reduction with DTT, were prepared in PBS buffer, pH 7.5. A 40 mM solution of DTT in PBS, pH 7.5 containing 1% TERGITOL was also prepared. Titrations of the thienopyrrole compounds JRW-0004, WZ141-88, WZ141-86, WZ141-74, WZ141-84, WZ141-89, WZ141-90, and WZ141-91 in the buffer containing DTT and TERGITOL were then prepared. An equal volume of the Nluc/pro-substrate solution was added to the thienopyrrole compound titrations in wells of an assay plate. The reactions were incubated at RT, and luminescence was measured at various time points on the Tecan M100 Pro plate reader (integration time 200 ms). IC50 values were determined using GraphPad Prism 6.03.
# [7] = biological target: Nluc (Oplophorus gracilirostris, UniProt Q9GV45, A31E/A60N/A81I/F95D/I117V/K70R/L54V/L99Q/M102K/N193R/P142E/Q151K/Q38R/Q45L/V71I/Y165I); assay: Multiplex RealTime-Glo / Caspase-Glo 3/7 in MCF7 cells; format: cell-based; set-up: purchased Promega Corporation
# Nluc, sequence (Q9GV45 28-196 with tags or gaps with the stated changes limits assumed): as above
# Experimental: as §1, §2
# [8] = 10 μM Stauro vs Control, 200 μM compound
# [9] = CASPASE-GLO 3/7 reagent with 200 μM compound, 1 hr 10 min
structure (smiles),measurement,setting,value
"CCN(C(=O)Cn1c(C(=O)OC)cc2sccc21)c1cccc(C)c1 [JRW-0004, methyl 4-(2-(ethyl(m-tolyl)amino)-2-oxoethyl)-4H-thieno[3,2-b]pyrrole-5-carboxylate]",IC50,[1],1.1 µM
same,Inhibition of Nluc enzyme in RealTime-Glo reagent (FIG. 1),[2],can inhibit the Nluc enzyme
same,Inhibition of purified Nluc enzyme (FIG. 2),[3],capable of inhibiting purified Nluc enzyme
same,Inhibition of firefly luciferase activity (FIG. 3),[4],do not inhibit firefly luciferase activity; also recorded: did not inhibit the firefly luciferase activity
same,"Fold Cont, Media only",[5]; [8],5.89
same,"Avg (luminescence), Media only, 10 μM Stauro",[5]; [9],54589
same,"Avg (luminescence), Media only, Control",[5]; [9],9261
same,"Inhibition of Nluc luciferase, dose and time dependence (FIGS. 4-6)",[6],inhibit Nluc luciferase in a dose- and time-dependent manner
same,"Fold Cont, Media containing RealTime-Glo",[7]; [8],5.53
same,"Avg (luminescence), Media containing RealTime-Glo, 10 μM Stauro",[7]; [9],50266
same,"Avg (luminescence), Media containing RealTime-Glo, Control",[7]; [9],9090
